{"source": "patent US20060276414A1", "about": "“Use of compositions comprising an estrogenic component for the treatment and prevention of musculoskeletal pain” (priority 2003, published 2006)", "key": {"[1]": {"tested_on": "DMBA-induced mammary tumours", "experiment": "7,12-dimethyl-benz(a)anthracene (DMBA)-induced tumour model in rats", "type": "in vivo, Sprague-Dawley rats", "description": "In order to assess the effect of the present estrogenic substances on tumours, estetrol was tested in the 7,12-dimethyl-benz(a)anthracene (DMBA)-induced tumour model in rats. This model, originally developed by Huggins et al.,1961 (Nature,19, 204-207), has been widely used and is a generally accepted model with predictive value for anti-tumour agents in humans. The growth of the DMBA-induced tumours is dependent on endogenously produced estradiol or exogenously administered estrogens and prolactin (Sylvester et al., 1982, Cancer Research, 42, 4943-4947).\nEighty-four female Sprague-Dawley rats (Harlan, The Netherlands) were group housed, maintained in a 12-hr light/dark environment, and fed a Soya Free Diet (SDS England) and water ad libitum. Animals were weighed on a weekly basis. One week prior to induction of mammary carcinoma, 12 animals (aged 43 days) were surgically castrated via removal of the ovaries. At the age of 50 days, all animals were administered a single oral dose of 16 mg DMBA to induce tumour development. Animals were subsequently allocated to one of seven groups (n=12), receiving placebo or treatment as follows:. • Group 1 animals received placebo oral treatment with 3.0 ml/kg/day vehicle (20% wt/vol solution of hydroxypropyl-beta-cyclodextrin in water); • Group 2 surgically castrated animals received placebo treatment with 3.0 ml/kg/day vehicle; • Group 3 animals received the anti-estrogen tamoxifen given orally at a single daily dose of 3 mg/kg; • Group 4 animals received ethinylestradiol (EE) orally at a single daily dose of 0.025 mg/kg; • Group S animals received ethinylestradiol (EE) orally at a single daily dose of 0.125 mg/kg; • Group 6 animals received estetrol (E4) orally at a single daily dose of 0.5 mg/kg; and • Group 7 animals received estetrol (E4) orally at a single daily dose of 2.5 mg/kg.\nDuring the treatment period of 8 weeks, the emergence of palpable tumours and number of tumours were determined weekly. At 8 weeks, at necropsy, final measurements were taken. The number of tumours at necropsy are depicted in FIG. 1."}, "[2]": {"tested_on": "DMBA-induced mammary tumours", "details": "literature (Hollingsworth et al., 1998); cited from earlier work"}, "[3]": {"tested_on": "early breast cancer in postmenopausal women", "details": "9366 patients; cited from earlier work"}, "[4]": {"tested_on": "musculoskeletal pain in premenopausal breast cancer patients", "experiment": "Example 3: placebo-controlled cross-over study, premenopausal breast cancer patients on estrogen suppressant therapy", "type": "in vivo, human patients", "details": "premenopausal patients with ovarian ablation, estetrol plus estrogen suppressant"}, "[5]": {"tested_on": "musculoskeletal pain in postmenopausal breast cancer patients", "experiment": "Example 2: placebo-controlled cross-over study, postmenopausal breast cancer patients (stage I or II) on estrogen suppressant therapy", "type": "in vivo, human patients", "details": "for average musculoskeletal pain sensation value during treatment weeks, vs placebo: 4 mg/day oral estetrol, 6 weeks", "description": "20 postmenopausal patients are recruited that have breast cancer in clinical staging I or II, are adequately being treated surgically, chemotherapeutically and/or radiotherapeutically, show estrogen receptor positive tumour histology and do no have contraindications for steroid therapy, are on treatment with either an anti-estrogen or an aromatase inhibitor for at least three months and suffer from musculoskeletal pain complaints (defined as skeletal pain, pain in the legs, arms or back). Furthermore, during the screening phase other diagnoses, such as rheumatoid arthritis and/or other skeletal diseases or joint diseases, are excluded.\n(§1) The patients participate in a clinical study with a duration of 15 weeks and are randomized as follows:\n(§2) Patients continue with the anti-estrogen treatment that they have been receiving previously during the entire period of the study and receive additional daily oral treatment with 4 mg estetrol or a placebo for six weeks. 5 patients start with 4 mg/day oral estetrol treatment and 5 patients with placebo treatment. After a wash-out period of 3 weeks, during which anti-estrogen treatment continues and no additional estetrol or placebo treatment is given, study treatment is reinitiated. Placebo-receiving patients are subsequently treated with 4 mg/day oral estetrol and estetrol-receiving patients with placebo for 6 weeks after which the study is terminated.\nas §2, with “aromatase inhibitor” for “anti-estrogen”\nThe subjects visit the study center once weekly, during which the patients are closely monitored by their study physician. During all visits, thorough physical examinations are performed, blood samples are retrieved and a questionnaire, specifically addressing musculoskeletal pain sensation on a graded scale and climacteric complaints, is completed. Primary endpoints in the study are improvement of the musculoskeletal pain and reduction of climacteric complaints, whereas secondary endpoints are clinical tumour progression and changes of tumour markers."}, "[6]": {"tested_on": "tumour gene expression profile and musculoskeletal pain in postmenopausal breast cancer patients", "experiment": "Example 4: placebo-controlled cross-over study with fine needle aspiration, postmenopausal breast cancer patients (at least stage III)", "type": "in vivo, human patients", "details": "for average musculoskeletal pain sensation value during treatment weeks, vs placebo: 6 weeks", "description": "20 postmenopausal patients are recruited that have breast cancer in at least clinical staging […], have a palpable macroscopic tumour mass, show estrogen receptor positive tumour histology, have already been treated with either an anti-estrogen or an aromatase inhibitor for at least three months, do no have contraindications for steroid therapy and suffer from musculoskeletal pain complaints (defined as skeletal pain, pain in the legs, arms or back). Furthermore, during the screening phase other diagnoses, such as rheumatoid arthritis and/or other skeletal diseases or joint diseases, are excluded.\nas §1\nas §2, with “treatment” for “treatment that”\nas §2, with “aromatase inhibitor” for “anti-estrogen”, “treatment” for “treatment that”\nThe patients visit the study center once weekly, during which the patients are closely monitored by their study physician. During all visits, thorough physical examinations are performed, blood samples are retrieved and a questionnaire, specifically addressing musculoskeletal pain sensation on a graded scale, is completed. Furthermore, three fine needle aspirations (FNA) from the macroscopic tumour are obtained at baseline, during the wash-out and at the last visit after study week 15, respectively. Additionally at the same time points and for all locations with macroscopic palpable tumour activity, tumour sizes are scored. Tumour gene expression profiles are determined by using a FNA-cDNA microarray as described by Sotiriou et al. (Breast Cancer Research 2002,4:R3). Primary endpoints in the study are changes of the gene expression profile, improvement of the musculoskeletal pain and reduction of climacteric complaints, whereas secondary endpoints are clinical tumour progression and changes of tumour markers."}, "[7]": {"tested_on": "bone resorption, hot flushing and vaginal cornification", "experiment": "agonistic models of in vivo estrogenicity (previous studies)", "details": "data from previous studies", "description": "The doses of EE and E4 were based on data from previous studies, showing equipotency of 0.025 mg/kg/day EE and 0.5 mg/kg/day E4 in agonistic models of preventing bone resorption, prevention of hot flushing and vaginal comification."}, "[8]": {"details": "4 mg/day oral estetrol added to estrogen suppressant therapy"}}}
{"smiles": "CC/C(=C(\\c1ccccc1)c1ccc(OCCN(C)C)cc1)c1ccccc1", "note": "[tamoxifen, reference compound]", "values": [{"measurement": "development of mammary tumours (number of tumours at necropsy)", "setting": "[1]; tamoxifen 3 mg/kg/day orally, 8 weeks, DMBA-treated female rats", "result": "inhibiting the development of mammary tumours"}, {"measurement": "anti-tumour treatment in the DMBA model", "setting": "[2]", "result": "effective anti-tumour treatments"}]}
{"smiles": "CC(C)(C#N)c1cc(Cn2cncn2)cc(C(C)(C)C#N)c1", "note": "[anastrozole]", "values": [{"measurement": "disease-free survival and incidence of contralateral breast cancer, compared with tamoxifen", "setting": "[3]", "result": "significantly superior"}]}
{"smiles": "C[C@]12CC[C@@H]3c4ccc(O)cc4CC[C@H]3[C@@H]1[C@@H](O)[C@@H](O)[C@@H]2O", "note": "[estetrol, 1,3,5 (10)-estratrien-3,15α,16α,17β-tetrol]", "values": [{"measurement": "clinical outcome (musculoskeletal pain) compared with postmenopausal patients", "setting": "[4]", "result": "similar-to the clinical outcome reported for postmenopausal breast cancer patients"}, {"measurement": "climacteric complaints (questionnaires)", "setting": "[5]; [8]", "result": "overall reduction"}, {"measurement": "average musculoskeletal pain sensation value during treatment weeks, vs placebo", "setting": "[5]; concomitant anti-estrogen therapy", "result": "significantly lower"}, {"measurement": "average musculoskeletal pain sensation value during treatment weeks, vs placebo", "setting": "[5]; concomitant aromatase inhibitor therapy", "result": "significantly lower"}, {"measurement": "clinical tumour progression and tumour markers", "setting": "[5]; during treatment with estetrol, vs baseline and recurrency data for stages I and II", "result": "do not show significant adverse changes"}, {"measurement": "preventing growth of DMBA-induced tumours, compared with tamoxifen", "setting": "[1]; E4 2.5 mg/kg/day orally vs tamoxifen 3 mg/kg/day orally", "result": "as effective as tamoxifen"}, {"measurement": "mammary tumour development (number of tumours at necropsy)", "setting": "[1]; E4 2.5 mg/kg/day orally, 8 weeks, DMBA-treated female rats", "result": "markedly suppressed mammary tumour development"}, {"measurement": "climacteric complaints (questionnaires)", "setting": "[6]; [8]", "result": "overall reduction"}, {"measurement": "molecular profile on concomitant administration with an anti-estrogen or an aromatase inhibitor", "setting": "[6]; 4 mg/day oral estetrol plus anti-estrogen or aromatase inhibitor", "result": "synergistically produces a more beneficial molecular profile"}, {"measurement": "average musculoskeletal pain sensation value during treatment weeks, vs placebo", "setting": "[6]; 4 mg/day oral estetrol, concomitant anti-estrogen therapy", "result": "significantly lower"}, {"measurement": "average musculoskeletal pain sensation value during treatment weeks, vs placebo", "setting": "[6]; 4 mg/day oral estetrol, concomitant aromatase inhibitor therapy", "result": "significantly lower"}, {"measurement": "changes in the gene-expression profile involved in regulation and deregulation of breast tissue proliferation", "setting": "[6]; 4 mg/day oral estetrol, FNA-cDNA microarray", "result": "favourable association"}, {"measurement": "tumour progression / sizes of macroscopic tumours", "setting": "[6]; additional estetrol treatment, vs baseline and progression data for stages III and more", "result": "tumours progress more slowly or sizes of macroscopically tumours decline"}, {"measurement": "equipotency with EE in preventing bone resorption, prevention of hot flushing and vaginal cornification", "setting": "[7]; 0.5 mg/kg/day E4 vs 0.025 mg/kg/day EE", "result": "equipotency"}, {"measurement": "equipotency with EE in in vivo estrogenicity (preventing bone resorption, hot flushing, vaginal cornification)", "setting": "[7]; 2.5 mg/kg/day E4 vs 0.125 mg/kg/day EE", "result": "equipotency"}]}
